The values that follow are results of earlier work, collected in EP1577823B1, “A method for identifying unknown proteins by a two-dimensional separation step and the use of markers” (CENTRE NATIONAL DE LA RECHERCHE SCIENTIFIQUE (CNRS), priority 2004, dated 2005).

For the data set the following is noted: pKa value of the positively or negatively charged amino acid side chain.
Consider `N[C@@H](CO)C(=O)O` [Serine], for which the pKR is listed as 13. For `N[C@@H](Cc1c[nH]cn1)C(=O)O` [Histidine], the pKR was 6. `N[C@@H](CCC(=O)O)C(=O)O` [Glutamic acid]: the pKR is recorded as 4,3. On to `N[C@@H](CS)C(=O)O` [Cysteine], for which the pKR is 8,3. In the case of `NCCCC[C@H](N)C(=O)O` [Lysine], the pKR is on record as 10,8. For `N=C(N)NCCC[C@H](N)C(=O)O` [Arginine], the pKR is reported as 12,5. Consider `C[C@@H](O)[C@H](N)C(=O)O` [Threonine], for which the pKR is 13. In the case of `N[C@@H](Cc1ccc(O)cc1)C(=O)O` [Tyrosine], the pKR is recorded as 10,1.
